{"source": "patent US20220081412A1", "about": "“QUINOLINYL-PYRAZINE-CARBOXAMIDE COMPOUNDS AND USES THEREOF” (The Regents of the University of Michigan, priority 2018, published 2022)", "system": "MIA PaCa-2 cells", "test": "Bru-seq analysis for nascent RNA synthesis (log2FC of genes, GSEA gene sets)", "format": "cell-based, human", "conditions": "4 h", "key": {"[1]": {"conditions": "GO_NUCLEAR_NUCLEOSOME, upregulated"}, "[2]": {"conditions": "GO_ORGANIC_HYDROXY_COMPOUND_BIOSYNTHETIC_PROCESS, upregulated"}, "[3]": {"conditions": "GO_PROTEIN_DNA_COMPLEX, upregulated"}, "[4]": {"conditions": "GO_REGULATION_OF_ENDOPLASMIC_RETICULUM_STRESS_INDUCED_INTRINSIC_APOPTOTIC_SIGNALING_PATHWAY, upregulated"}, "[5]": {"conditions": "GO_REGULATION_OF_STEROID_BIOSYNTHETIC_PROCESS, upregulated"}, "[6]": {"conditions": "GO_REGULATION_OF_STEROID_METABOLIC_PROCESS, upregulated"}, "[7]": {"conditions": "GO_RIBOSOMAL_SUBUNIT, upregulated"}, "[8]": {"conditions": "GO_STEROID_BIOSYNTHETIC_PROCESS, upregulated"}, "[9]": {"conditions": "GO_STEROID_METABOLIC_PROCESS, upregulated"}, "[10]": {"conditions": "GO_STEROL_BIOSYNTHETIC_PROCESS, upregulated"}, "[11]": {"conditions": "GO_STEROL_METABOLIC_PROCESS, upregulated"}, "[12]": {"conditions": "GO_STRUCTURAL_CONSTITUENT_OF_RIBOSOME, upregulated"}, "[13]": {"conditions": "HAMAI_APOPTOSIS_VIA_TRAIL_UP, C2, downregulated"}, "[14]": {"conditions": "HUTTMANN_B_CLL_POOR_SURVIVAL_DN, C2, downregulated"}, "[15]": {"conditions": "KEGG_ACUTE_MYELOID_LEUKEMIA, upregulated"}, "[16]": {"conditions": "KEGG_ADIPOCYTOKINE_SIGNALING_PATHWAY, upregulated"}, "[17]": {"conditions": "KEGG_BIOSYNTHESIS_OF_UNSATURATED_FATTY_ACIDS, upregulated"}, "[18]": {"conditions": "KEGG_CARDIAC_MUSCLE_CONTRACTION, upregulated"}, "[19]": {"conditions": "KEGG_ENDOMETRIAL_CANCER, upregulated"}, "[20]": {"conditions": "KEGG_FC_EPSILON_RI_SIGNALING_PATHWAY, upregulated"}, "[21]": {"conditions": "KEGG_GLYCOLYSIS_GLUCONEOGENESIS, upregulated"}, "[22]": {"conditions": "KEGG_INSULIN_SIGNALING_PATHWAY, upregulated"}, "[23]": {"conditions": "KEGG_LONG_TERM_DEPRESSION, upregulated"}, "[24]": {"conditions": "KEGG_MTOR_SIGNALING_PATHWAY, upregulated"}, "[25]": {"conditions": "KEGG_NON_SMALL_CELL_LUNG_CANCER, upregulated"}, "[26]": {"conditions": "KEGG_OXIDATIVE_PHOSPHORYLATION, upregulated"}, "[27]": {"conditions": "KEGG_PARKINSONS_DISEASE, upregulated"}, "[28]": {"conditions": "KEGG_PORPHYRIN_AND_CHLOROPHYLL_METABOLISM, upregulated"}, "[29]": {"conditions": "KEGG_PPAR_SIGNALING_PATHWAY, upregulated"}, "[30]": {"conditions": "KEGG_PROGESTERONE_MEDIATED_OOCYTE_MATURATION, upregulated"}, "[31]": {"conditions": "KEGG_PROSTATE_CANCER, upregulated"}, "[32]": {"conditions": "KEGG_RENAL_CELL_CARCINOMA, upregulated"}, "[33]": {"conditions": "KEGG_SNARE_INTERACTIONS_IN_VESICULAR_TRANSPORT, upregulated"}, "[34]": {"conditions": "KEGG_SYSTEMIC_LUPUS_ERYTHEMATOSUS, upregulated"}, "[35]": {"conditions": "KEGG_VEGF_SIGNALING_PATHWAY, upregulated"}, "[36]": {"conditions": "KRCTCNNNNMANAGC_UNKNOWN, TFBT, upregulated"}, "[37]": {"conditions": "MILI_PSEUDOPODIA_HAPTOTAXIS_UP, C2, downregulated"}, "[38]": {"conditions": "NIKOLSKY_BREAST_CANCER_8Q12_Q22_AMPLICON, C2, downregulated"}}, "data": [{"smiles": "Cc1cc(NC(=O)c2cnc(N3CCNCC3)cn2)c2ncccc2c1", "note": "[J28, N-(6-methylquinolin-8-yl)-5-(piperazin-1-yl)pyrazine-2-carboxamide]", "values": [{"measurement": "ES", "setting": "[1]", "result": 0.745}, {"measurement": "NES", "setting": "[1]", "result": 2.088}, {"measurement": "ES", "setting": "[2]", "result": 0.503}, {"measurement": "NES", "setting": "[2]", "result": 1.959}, {"measurement": "ES", "setting": "[3]", "result": 0.554}, {"measurement": "NES", "setting": "[3]", "result": 2.251}, {"measurement": "ES", "setting": "[4]", "result": 0.678}, {"measurement": "NES", "setting": "[4]", "result": 2.024}, {"measurement": "ES", "setting": "[5]", "result": 0.710}, {"measurement": "NES", "setting": "[5]", "result": 2.097}, {"measurement": "ES", "setting": "[6]", "result": 0.615}, {"measurement": "NES", "setting": "[6]", "result": 2.031}, {"measurement": "ES", "setting": "[7]", "result": 0.469}, {"measurement": "NES", "setting": "[7]", "result": 1.976}, {"measurement": "ES", "setting": "[8]", "result": 0.605}, {"measurement": "NES", "setting": "[8]", "result": 2.176}, {"measurement": "ES", "setting": "[9]", "result": 0.523}, {"measurement": "NES", "setting": "[9]", "result": 2.100}, {"measurement": "ES", "setting": "[10]", "result": 0.757}, {"measurement": "NES", "setting": "[10]", "result": 2.428}, {"measurement": "ES", "setting": "[11]", "result": 0.651}, {"measurement": "NES", "setting": "[11]", "result": 2.434}, {"measurement": "ES", "setting": "[12]", "result": 0.452}, {"measurement": "NES", "setting": "[12]", "result": 1.990}, {"measurement": "log2FC", "setting": "GPR135, downregulated protein-coding gene", "result": "−1.08"}, {"measurement": "log2FC", "setting": "GRIN2C, downregulated protein-coding gene", "result": "−0.95"}, {"measurement": "ES", "setting": "[13]", "result": "−0.508"}, {"measurement": "NES", "setting": "[13]", "result": "−2.848"}, {"measurement": "ES", "setting": "HEB_Q6, TFBT, upregulated", "result": 0.415}, {"measurement": "NES", "setting": "HEB_Q6, TFBT, upregulated", "result": 1.688}, {"measurement": "log2FC", "setting": "HRH4, downregulated protein-coding gene", "result": "−0.86"}, {"measurement": "ES", "setting": "[14]", "result": "−0.605"}, {"measurement": "NES", "setting": "[14]", "result": "−2.158"}, {"measurement": "log2FC", "setting": "IFT80, downregulated protein-coding gene", "result": "−1.12"}, {"measurement": "ES", "setting": "[15]", "result": 0.524}, {"measurement": "NES", "setting": "[15]", "result": 1.872}, {"measurement": "ES", "setting": "[16]", "result": 0.429}, {"measurement": "NES", "setting": "[16]", "result": 1.493}, {"measurement": "ES", "setting": "[17]", "result": 0.555}, {"measurement": "NES", "setting": "[17]", "result": 1.531}, {"measurement": "ES", "setting": "[18]", "result": 0.424}, {"measurement": "NES", "setting": "[18]", "result": 1.386}, {"measurement": "ES", "setting": "[19]", "result": 0.437}, {"measurement": "NES", "setting": "[19]", "result": 1.492}, {"measurement": "ES", "setting": "[20]", "result": 0.442}, {"measurement": "NES", "setting": "[20]", "result": 1.464}, {"measurement": "ES", "setting": "[21]", "result": 0.478}, {"measurement": "NES", "setting": "[21]", "result": 1.563}, {"measurement": "ES", "setting": "[22]", "result": 0.349}, {"measurement": "NES", "setting": "[22]", "result": 1.403}, {"measurement": "ES", "setting": "[23]", "result": 0.461}, {"measurement": "NES", "setting": "[23]", "result": 1.491}, {"measurement": "ES", "setting": "KEGG_LYSOSOME, upregulated", "result": 0.494}, {"measurement": "NES", "setting": "KEGG_LYSOSOME, upregulated", "result": 1.958}, {"measurement": "ES", "setting": "[24]", "result": 0.447}, {"measurement": "NES", "setting": "[24]", "result": 1.469}, {"measurement": "ES", "setting": "[25]", "result": 0.477}, {"measurement": "NES", "setting": "[25]", "result": 1.610}, {"measurement": "ES", "setting": "[26]", "result": 0.387}, {"measurement": "NES", "setting": "[26]", "result": 1.544}, {"measurement": "ES", "setting": "[27]", "result": 0.358}, {"measurement": "NES", "setting": "[27]", "result": 1.404}, {"measurement": "ES", "setting": "KEGG_PEROXISOME, upregulated", "result": 0.443}, {"measurement": "NES", "setting": "KEGG_PEROXISOME, upregulated", "result": 1.643}, {"measurement": "ES", "setting": "[28]", "result": 0.496}, {"measurement": "NES", "setting": "[28]", "result": 1.448}, {"measurement": "ES", "setting": "[29]", "result": 0.485}, {"measurement": "NES", "setting": "[29]", "result": 1.573}, {"measurement": "ES", "setting": "[30]", "result": 0.434}, {"measurement": "NES", "setting": "[30]", "result": 1.602}, {"measurement": "ES", "setting": "[31]", "result": 0.402}, {"measurement": "NES", "setting": "[31]", "result": 1.527}, {"measurement": "ES", "setting": "[32]", "result": 0.393}, {"measurement": "NES", "setting": "[32]", "result": 1.392}, {"measurement": "ES", "setting": "KEGG_RIBOSOME, upregulated", "result": 0.534}, {"measurement": "NES", "setting": "KEGG_RIBOSOME, upregulated", "result": 2.148}, {"measurement": "ES", "setting": "[33]", "result": 0.503}, {"measurement": "NES", "setting": "[33]", "result": 1.647}, {"measurement": "ES", "setting": "[34]", "result": 0.661}, {"measurement": "NES", "setting": "[34]", "result": 2.271}, {"measurement": "ES", "setting": "[35]", "result": 0.501}, {"measurement": "NES", "setting": "[35]", "result": 1.705}, {"measurement": "log2FC", "setting": "KLF10, downregulated protein-coding gene", "result": "−0.88"}, {"measurement": "ES", "setting": "[36]", "result": 0.784}, {"measurement": "NES", "setting": "[36]", "result": 2.441}, {"measurement": "log2FC", "setting": "LINC01337, downregulated noncoding gene", "result": "−1.06"}, {"measurement": "log2FC", "setting": "LINC01764, downregulated noncoding gene", "result": "−1.03"}, {"measurement": "log2FC", "setting": "LINC01930, downregulated noncoding gene", "result": "−1.08"}, {"measurement": "log2FC", "setting": "MALAT1, downregulated noncoding gene", "result": "−1.19"}, {"measurement": "ES", "setting": "MAZR_01, TFBT, upregulated", "result": 0.380}, {"measurement": "NES", "setting": "MAZR_01, TFBT, upregulated", "result": 1.598}, {"measurement": "ES", "setting": "[37]", "result": "−0.420"}, {"measurement": "NES", "setting": "[37]", "result": "−2.372"}, {"measurement": "log2FC", "setting": "MTND2P28, downregulated noncoding gene", "result": "−0.97"}, {"measurement": "ES", "setting": "NFE2_01, TFBT, upregulated", "result": 0.387}, {"measurement": "NES", "setting": "NFE2_01, TFBT, upregulated", "result": 1.630}, {"measurement": "ES", "setting": "NFY_Q6_01, TFBT, upregulated", "result": 0.370}, {"measurement": "NES", "setting": "NFY_Q6_01, TFBT, upregulated", "result": 1.617}, {"measurement": "ES", "setting": "[38]", "result": "−0.499"}, {"measurement": "NES", "setting": "[38]", "result": "−2.099"}, {"measurement": "ES", "setting": "NRF2_01, TFBT, upregulated", "result": 0.356}, {"measurement": "NES", "setting": "NRF2_01, TFBT, upregulated", "result": 1.597}]}]}
